Assay results published in patent US20240091328A1, “FORMULATIONS AND METHODS FOR MHC-I RESTRICTED EPITOPE IMMUNIZATION” (The Research Foundation for The State University of New York, priority 2021, published 2024).

Legend:
[1] = tested on: E749-57 specific CD8^+ T cells; assay: E749-57 tetramer staining of CD8+ T cells in blood; assay type: in vivo, C57BL/6 mice; details: E7HHH49-57 admixed with poly(I:C), 19 days post-tumor inoculation
Text: FIG. 23. Immunization with E7HHH49-57-admixed with CPQ inhibits tumor growth in a therapeutic setting more potently than poly(I:C). C57BL/6 mice were inoculated with TC-1 cells subcutaneously on day 0; then different vaccines were given 2 days post-tumor inoculation. […] (A) Tumor growth of mice that vaccinated with indicated vaccine. (B) Tumor sizes of mice on day 19. (C) Survival of mice. (D) Percentage of CD8^+E749-57 tet^+ cells in the blood. Error bars show mean+/−std. dev. for n=5 per group. * p<0.05, ** p<0.01 and **** p<0.0001, analyzed by (C) long rank test or (D) one-way ANOVA with Bonferroni multiple comparisons post-test.
(§1) Since CPQ/E7HHH49-57 was effective in a prophylactic setting, we next assessed the vaccine on established TC-1 tumors, which is also the setting in which most cancer vaccines would be initially tested clinically. Poly(I:C) was used as an adjuvant comparator. For poly(I:C), the synthetic short peptide dose ranged from […] per mouse while the poly(I:C) dose remained fixed at […]. For the CPQ liposome adjuvant, the peptide dosing varied from […] per mouse. Given that the ratio of liposomes to peptide was fixed, this corresponds to a 3D6A-PHAD dose and QS-21 dose ranging from 1.6 to 0.16 μg, along with a CoPoP dose ranging from 4 to 0.4 μg. […]

TC-1 cells = assay: Therapeutic vaccine tumor model, subcutaneous TC-1; assay type: in vivo, C57BL/6 mice; details: E7HHH49-57 admixed with poly(I:C), up to 20 μg peptide
Text: FIG. 23. Immunization with E7HHH49-57-admixed with CPQ inhibits tumor growth in a therapeutic setting more potently than poly(I:C). C57BL/6 mice were inoculated with TC-1 cells subcutaneously on day 0; then different vaccines were given 2 days post-tumor inoculation. Blood was collected 18 days post-tumor inoculation for CD8^+ T cell analyses. (A) Tumor growth of mice that vaccinated with indicated vaccine. (B) Tumor sizes of mice on day 19. (C) Survival of mice. (D) Percentage of CD8^+E749-57 tet^+ cells in the blood. Error bars show mean+/−std. dev. for n=5 per group. * p<0.05, ** p<0.01 and **** p<0.0001, analyzed by (C) long rank test or (D) one-way ANOVA with Bonferroni multiple comparisons post-test.
as §1

[2] = tested on: AH1-specific CD8^+ T cells; assay: AH1 tetramer staining of CD8+ T cells after immunization; assay type: in vivo, BALB/c mice; details: CPQ with 1 μg total peptide, days 0 and 7, blood day 14
Protocol: In vivo immunization: Murine studies were performed according to protocols approved by the University at Buffalo IACUC. 5-6 week-old female BALB/c mice (Charles River Laboratories, strain BALB/cAnNCrl) were immunized intramuscularly on the right hind leg. BALB/cJ mice (Jackson Laboratories) were used in this study only for DNA sequencing where indicated.
For tetramer staining, immunized mice were analyzed for the percentages of tumor Ag-specific CD8^+ T cells by a tetramer staining assay. H-2L^d-restricted AH1 ([…]) peptide was complexed with MHC-I (H-2L^d) and conjugated with PE (the NIH Tetramer core facility). 60 μL of blood incubated with the AH1 tetramer for 1 hr at 4° C. (100× dilution), then incubated with CD8a, MHC-II (IA/IE), B220, CD4, CD44 and CD62L antibodies for 30 min at 4° C. (1000× dilution). Red blood cells were lysed by cell lysis buffer for 5 mins then cells were centrifuged at 500×g for another 5 min. The cell pellets were washed twice for flow cytometry analysis. For tetramer staining of splenocytes, 1×10^6 cells were incubated with tetramer and antibodies in the same condition as blood, and then washed twice for flow cytometry analysis. Flow cytometry studies were carried out using a BD LSRFortessam X-20 cytometer. Flowjo (version 10) software was used for data analysis.

For “Polyinosinic:polycytidylic acid [poly(I:C)]”, the “Ag-specific CD8^+ T cells in the blood” value [1] was “almost no” and the “Time within which tumors of all mice reached the 1 cm endpoint” value (TC-1 cells) was ≤ 60 days.
For SPSYVYHQF [AH1], the “CD8^+ T cells that were Ag specific (AH1 tet^+)” value [2] was “did not elicit detectable amount”.
